Data taken from US20260240879A1, “TOPICAL PALA THERAPY FOR CANCER” (priority 2023, published 2026).

Legend:
[1] = biological target: T1, aspartate transcarbamylase (Homo sapiens, UniProt P27708); assay: Aspartate transcarbamylase activity in lysates of PALA-treated fibroblasts; format: cell-based; conditions: at doses that induce maximal immune stimulation, 16 h
T1 construct: endogenous in cells; host or cells: normal human dermal fibroblasts
Experimental: (§1) A. Bactericidal activity of normal human dermal fibroblasts stimulated by PALA treatment. Cells stimulated for 16 h with the indicated concentration of PALA. Conditioned supernatants added to log phase cultures of methicillin-resistant Staphylococcus aureus (MRSA) for 2 h and viable bacterial determined by selective plating. Mean±SD graphed. B. PALA-stimulated production of antimicrobial peptides in normal human dermal fibroblasts. Cells were stimulated as in A. and supernatants assayed by ELISA for human β-defensin 2 (HBD2) and human β-defensin 3 (HBD3). Mean±SD graphed. C. […] Cell lysates from the cells shown in A. were assayed for their ability to catalyze the formation of carbamyl aspartate (CA) in vitro. Percent change in CA levels graphed; mean±SD. […] D. Average number of tumors per mouse at the end of the treatment period (mean±SEM graphed). D. Mice treated for 10 weeks with vehicle (Aquaphor), 1%, 2%, or 5% PALA in Aquaphor. E. Mice treated for 4 weeks with vehicle (AP0536/29/02), 2% (w/w) PALA (AP0536/29/02), or 4% (w/w) PALA (AP0536/29/02).

[2] = system: normal human dermal fibroblasts; assay: PALA stimulation of normal human dermal fibroblasts (bactericidal activity against MRSA, antimicrobial peptides); format: cell-based; conditions: cells stimulated for 16 h with PALA
Experimental: as §1

[3] = mouse, in vivo
Experimental: The topical formulations of 2% PALA/50% acetone/10% glycerol, 5% imiquimod (IMQ), 5% 5-FU (5-FU), vehicle (50% acetone/10% glycerol) control, and Aquaphor were applied (~0.05 g/mouse) daily to the dorsal skin of SKH1-Elite female mice (8 weeks of age; n=5/group) for 7 days. […] Mice were monitored daily for weight change, skin appearance, and signs of distress. […] At harvest, spleen weights and colon lengths were measured.

B16 melanoma = B16 melanoma orthotopic xenograft model; format: in vivo,  female mice
Experimental: FIG. 17: Topical PALA treatment retards melanoma growth and sensitizes melanoma to anti-checkpoint inhibitor therapy in a B16 melanoma orthotopic xenograft model. C57BU/6 female mice (n=4-5/group) were injected subcutaneously bilaterally with B16 melanoma cells (10^5 cells/flank; 8-10 injections total). Tumor volume was measured by caliper every 2-3 days by personnel blinded to treatment group. Data from palpable tumors are graphed as mean±SEM. […] On day 12 post-injection, mice were treated topically with either vehicle (AP0536/29/02) or 1% (w/w) PALA (AP0536/29/02) daily for 12 days. […] On day 7 post-injection, mice were treated topically with either vehicle (AP0536/29/02) or 2% (w/w) PALA (AP0536/29/02) daily for 5 days. Tumors were harvested on day 14 post-injection and tumor lysates analyzed by immunoblot for PD-L1 protein levels and quantified by image densitometry using ImageJ relative to tubulin levels (loading control). Mean±SEM graphed. C. […] On day 7 post-injection, mice were treated topically with either vehicle (AP0536/29/02) or 2% (w/w) PALA (AP0536/29/02) daily for 5 days. Mice were also treated with either isotype or anti-PD-L1/atezolizumab antibodies (100 μg/mouse) every 48 hours intraperitoneally from day 7 to day 19. Significant differences were determined by 2-way ANOVA with Dunnett's multiple comparison test. ***p<0.001

T1 sequence (P27708 2-2225 limits assumed): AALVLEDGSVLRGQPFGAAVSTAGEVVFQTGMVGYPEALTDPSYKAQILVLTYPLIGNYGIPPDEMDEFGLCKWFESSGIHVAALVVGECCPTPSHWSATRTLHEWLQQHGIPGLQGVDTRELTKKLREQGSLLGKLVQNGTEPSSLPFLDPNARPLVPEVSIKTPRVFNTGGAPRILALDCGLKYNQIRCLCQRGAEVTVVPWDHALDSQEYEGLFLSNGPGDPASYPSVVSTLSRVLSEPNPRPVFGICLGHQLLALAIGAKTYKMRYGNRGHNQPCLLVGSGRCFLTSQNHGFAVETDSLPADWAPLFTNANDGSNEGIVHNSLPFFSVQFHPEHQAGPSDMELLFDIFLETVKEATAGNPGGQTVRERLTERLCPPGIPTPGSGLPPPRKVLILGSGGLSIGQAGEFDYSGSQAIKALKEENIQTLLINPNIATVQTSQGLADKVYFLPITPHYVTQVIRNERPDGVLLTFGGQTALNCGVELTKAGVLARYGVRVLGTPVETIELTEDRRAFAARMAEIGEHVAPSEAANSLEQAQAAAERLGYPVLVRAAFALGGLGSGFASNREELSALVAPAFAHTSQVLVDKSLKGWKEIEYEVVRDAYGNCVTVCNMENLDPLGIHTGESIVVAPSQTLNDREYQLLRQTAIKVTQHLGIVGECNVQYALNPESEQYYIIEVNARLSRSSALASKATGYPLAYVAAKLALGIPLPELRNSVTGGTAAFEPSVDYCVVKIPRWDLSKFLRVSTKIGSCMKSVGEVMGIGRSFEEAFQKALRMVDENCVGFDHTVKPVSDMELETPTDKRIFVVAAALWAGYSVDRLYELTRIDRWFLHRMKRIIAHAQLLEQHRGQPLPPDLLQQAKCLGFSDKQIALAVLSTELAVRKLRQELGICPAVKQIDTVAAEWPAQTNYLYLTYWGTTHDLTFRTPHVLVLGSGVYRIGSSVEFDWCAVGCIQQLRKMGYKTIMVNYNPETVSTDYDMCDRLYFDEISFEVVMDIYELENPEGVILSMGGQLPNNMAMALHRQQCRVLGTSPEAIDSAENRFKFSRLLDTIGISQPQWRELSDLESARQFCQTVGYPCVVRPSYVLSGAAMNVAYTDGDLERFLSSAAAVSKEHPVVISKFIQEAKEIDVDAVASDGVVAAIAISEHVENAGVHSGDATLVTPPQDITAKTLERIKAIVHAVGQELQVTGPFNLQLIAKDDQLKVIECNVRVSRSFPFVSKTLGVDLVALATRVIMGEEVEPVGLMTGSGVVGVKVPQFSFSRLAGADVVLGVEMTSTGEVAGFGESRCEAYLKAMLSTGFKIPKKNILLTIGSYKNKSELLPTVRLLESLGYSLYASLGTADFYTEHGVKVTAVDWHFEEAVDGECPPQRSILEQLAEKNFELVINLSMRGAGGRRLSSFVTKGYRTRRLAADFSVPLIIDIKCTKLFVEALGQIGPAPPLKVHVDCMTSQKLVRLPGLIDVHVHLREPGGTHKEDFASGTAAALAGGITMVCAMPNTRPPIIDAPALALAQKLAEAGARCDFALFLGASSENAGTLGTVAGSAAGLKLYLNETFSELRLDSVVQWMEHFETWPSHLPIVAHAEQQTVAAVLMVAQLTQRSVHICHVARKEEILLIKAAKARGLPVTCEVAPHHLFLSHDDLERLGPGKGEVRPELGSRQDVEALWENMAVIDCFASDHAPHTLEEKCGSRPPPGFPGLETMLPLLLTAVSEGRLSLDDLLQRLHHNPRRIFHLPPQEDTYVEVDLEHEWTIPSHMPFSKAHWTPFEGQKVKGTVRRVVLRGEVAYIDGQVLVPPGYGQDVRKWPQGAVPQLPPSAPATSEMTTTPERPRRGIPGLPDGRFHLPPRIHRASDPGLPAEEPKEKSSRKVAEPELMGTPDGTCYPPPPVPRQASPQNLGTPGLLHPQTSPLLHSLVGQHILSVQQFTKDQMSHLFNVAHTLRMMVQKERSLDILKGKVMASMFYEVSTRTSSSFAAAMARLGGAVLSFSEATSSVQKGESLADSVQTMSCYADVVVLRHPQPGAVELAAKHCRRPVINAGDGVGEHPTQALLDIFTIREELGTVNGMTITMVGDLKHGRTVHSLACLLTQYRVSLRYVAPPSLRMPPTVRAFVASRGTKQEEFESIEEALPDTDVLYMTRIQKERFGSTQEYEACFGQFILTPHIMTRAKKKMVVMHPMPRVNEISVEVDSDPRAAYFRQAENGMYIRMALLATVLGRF

## O=C(O)CC(NC(=O)CP(=O)(O)O)C(=O)O [PALA, N-phosphonacetyl-L-aspartate]
[1]
  reduction of aspartate transcarbamylase enzyme activity (carbamyl aspartate formation): ~ 25%
[2]
  shape of dose-response curve (bactericidal activity, HBD2, HBD3): U-shaped dose-response curve
[3]
  SAA levels on day 7: no changes
  colon length / gross intestinal pathology on day 7: no changes
  skin histology on day 7: no changes
  skin irritation apparent (day): no skin irritation
  spleen weight on day 7: no changes
B16 melanoma; 1% (w/w) PALA (AP0536/29/02), topical daily for 12 days from day 12 post-injection
  tumor growth (tumor volume): retards tumor growth
B16 melanoma; 2% (w/w) PALA (AP0536/29/02), topical daily for 5 days
  PD-L1 protein levels in tumor lysates: reduces expression of the checkpoint inhibitor PD-L1
B16 melanoma; 2% (w/w) PALA daily for 5 days plus anti-PD-L1/atezolizumab 100 μg/mouse i.p. every 48 hours
  response to anti-PD-L1 therapy: sensitizes B16 melanoma to anti-PD-L1 therapy
